This is an account of results in patent publication US12692259B2, “Morpholine-containing and piperazine-containing CXCR4 modulators and uses related thereto” (Emory University, priority 2021, dated 2026).

The nature of one series: PAMPA assay. The format is in vitro ADME. Particulars: pH 7.4. On the procedure:
PAMPA assay was performed by BioAssay Systems Services or Bristol Myers Squibb. The method used by BioAssay Systems Services is described below.
Stock solutions in DMSO for all compounds (10 mM) were thawed. The assay was performed in duplicate by following the PAMPA-096 procedure for sample plating. 4% Lecithin in dodecane solution was prepared by resuspending the dried lecithin with 750 μL dodecane. PBS pH 7.4 was used as the diluent. Two sets of plates and equilibrium solutions were incubated for 4 hours at room temperature. Acceptor and equilibrium solutions were analyzed in a UV plate. OD280 nm was used for High Permeability Control (chloramphenicol). OD270 nm was used for Medium Permeability Control (diclofenac) and Low Permeability Control (theophylline). OD254 nm was used for the test compounds.
Data analysis was performed by using the peak absorbance for each respective test compound and Permeability Control to determine the Permeability Rate (Pe) via the following equation: […]
where ODA is the absorbance of Acceptor Solution, ODE is the absorbance of the Equilibrium Standard, and C is determined by the equation below: […]
where Donor Volume (VD) is 0.2 cm^3, Acceptor Volume (VA) is 0.3 cm^3, and Membrane Area (Area) is 0.24 cm^2.
In general terms: In PAMPA a lipid-coated filter parts donor from acceptor wells.

Series [1] is described as follows: Metabolic stability assay, human liver microsomes (HLM). Format: in vitro ADME. Particulars: 10 min. From the text:
Controls were processed and analyzed like the test compounds.
On the technique in general: Microsomes from liver hold many membrane-bound enzymes, among them those of drug oxidation.

In the next series the target is CXCR4 (Homo sapiens, UniProt P61073). Put plainly: cAMP assay in CXCR4-CHO-Glo cells (GloSensor, forskolin + SDF-1α). Format: cell-based. On the set-up: expressed in transfected cells. From the text:
Materials, reagents, and instrument—Advanced DMEM (Gibco), trypsin EDTA (0.05%, phenol red), L-glutamine, HBSS buffer with and without Ca^2+/Mg^2+ (Gibco), antibiotic-antimycotic (Gibco), hygromycin B, and geneticin selective antibiotic (G418 sulfate) were purchased from Invitrogen. Forskolin (Tocris), SDF-1α (R&D Systems), HEPES (Sigma Aldrich), FBS (Atlanta Biologicals), D-luciferin (Gold Biotechnology), sterile 60 mm tissue culture dishes, and 96-well sterile tissue culture plates were purchased from Corning.
The assay targeted CXCR4 expressed in CHO-gloSensor cells. It monitored GPCR activation based on forskolin-stimulated cAMP production in cells. The assay used a genetically encoded biosensor with its cAMP binding domain fused to luciferase. Binding of cAMP to the cAMP binding domain changed the conformation of the biosensor, leading to the activation of luciferase. The intensity of the luciferase signal (light output) resulted from the oxidation of D-luciferin to oxyluciferin is proportional to the amount of cAMP produced in the cells.
The assay was performed in triplicate using live cells in 96-well tissue culture plates. Cells were pre-incubated in the dark at room temperature for one hour in the presence of D-luciferin. Bioluminescence was quantified before and after the agonist/antagonist addition. Stock solution of forskolin and SDF-1a, was prepared in Locke-Luc buffer. Stock solutions of the test compounds were prepared in DMSO (10 mM); they were diluted by Locke's buffer for use in the assay.
CHO-Glo cells, a cell line stably expressing the GloSensor cAMP biosensor (Promega), were transfected with cDNA encoding human CXCR4 in Pires-AcGFP1 (Clontech) and a stable cell line was isolated (CXCR4-CHO-Glo cells). The CXCR4-CHO-Glo cells were grown to confluency on 60 mm tissue culture dishes. After trypsinization, the cells were plated on 96-well plates and incubated overnight. The next day, culture media in each well was aspirated and replaced with 100 μL Locke's buffer containing 4 mM D-luciferin, followed by incubation in the dark for one hour. Before the addition of agonist/antagonist, each plate was read five times at 2 min intervals to obtain basal bioluminescence values from each well. The average of these five pre-readings was used to normalize each well's response to account for differences in GloSensor expression and cell density. After five pre-readings, cAMP formation was initiated with the addition of 50 μL solution of test compound (TC) in Locke Luc buffer containing forskoline and SDF-1α. […] Luminescence was measured immediately after the addition of the antagonist solution. The measurements were taken every two minutes for 30 minutes in kinetics mode after antagonist addition. IC50 values were calculated from the 4-parameter logistic equation using Prism GraphPad.
A general note: cAMP levels reflect the balance of adenylyl cyclase and phosphodiesterase activity.

A further series can be described thus: in vitro. Particulars: mouse, 10 min, 3 µM, pH 7.4. The protocol:
Metabolic stability assay was performed at Emory University's Department of Chemistry or by Bristol Myers Squibb. The method used by Emory University's Department of Chemistry is described below.
Each method was developed in the presence of an internal standard (ISTD) d5-7-ethoxy coumarin. The column temperature was maintained at 40° C. for most of the samples otherwise noted. The detection was operated in the Agilent JetStream electrospray positive ionization using multiple reaction monitoring mode (MRM).
Other MS conditions were as follows: dwell time 100 ms; gas flow 10 L/min; nebulizer pressure 45 psi; delta EMV 200 V; fragmentor voltage and collision energy for individual compounds vary.
Test compounds were dissolved in 100% DMSO or 100% MeOH to make 10 mM stock solutions. Verapamil (Sigma Aldrich) aided as a positive control and was dissolved in 100% DMSO to make 10 mM stock solutions. The 10 mM stock solution of test and control compounds were further diluted in potassium phosphate buffer (100 mM, pH 7.4) to 500 μM to ensure the organic solvent content was <0.2%. Human liver microsomes (HLMs) were purchased from Xenotech at 20 mg/mL. NADPH (Sigma Aldrich) 10 mM stocks were prepared in deionized water.
The HLM assay was prepared in a 1.5 mL Eppendorf tube with a final volume of 1100 μL for duplicate runs. Each reaction contained phosphate buffer (928.4 μL), liver microsomes (55 μL), and test compound resulting in a final concentration of 3 μM (6.6 μL of 500 μM). The reaction was initiated with 110 μL of 10 mM NADPH. […] Before centrifugation each of the aliquoted tubes were vortexed to make sure compounds were in the solution. The aliquots were centrifuged at 12,000 g for 5 min and the supernatant removed and placed in an LC-MS vial. Each time point was assessed using LC-MS and the area, based on the extracted ion, was integrated with respect to the ISTD. […] A no-NADPH negative control with test or control compound was performed in a single run (150 μL) at the longest time point. Controls were processed and analyzed like the test compounds. Each time point was run in duplicates followed by in-between blank washes to avoid the carryover and to equilibrate the column.
The MLM assay was performed using the same procedures as those described above for the HLM assay.

Chain of CXCR4 (P61073 whole entry): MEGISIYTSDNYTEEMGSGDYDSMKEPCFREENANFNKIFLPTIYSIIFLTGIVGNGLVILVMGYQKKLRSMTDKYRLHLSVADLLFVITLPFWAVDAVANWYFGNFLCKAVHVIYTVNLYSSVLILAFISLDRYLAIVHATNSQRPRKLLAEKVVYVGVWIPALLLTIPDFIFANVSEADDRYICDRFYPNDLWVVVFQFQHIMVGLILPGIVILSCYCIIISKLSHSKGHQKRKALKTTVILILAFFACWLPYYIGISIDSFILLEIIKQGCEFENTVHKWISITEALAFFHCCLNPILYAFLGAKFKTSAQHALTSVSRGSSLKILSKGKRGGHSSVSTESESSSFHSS

In the case of `C[C@@H]1CN(c2cccc3c2C[C@H](CN(C)[C@H]2CCCc4cccnc42)NC3)CCO1` [EMU-317, (S)—N-methyl-N—(((R)-5-((R)-2-methylmorpholino)-1,2,3,4-tetrahydroisoquinolin-3-yl)methyl)-5,6,7,8-tetrahydroquinolin-8-amine], the Papp – broadly, a coefficient for how fast a substance crosses the barrier – at 4 h in the series “PAMPA assay” was determined as 15.5 ×10⁻⁶ cm/s.

Regarding `CN(C[C@H]1Cc2c(cccc2N2CCO[C@@H](CO)C2)CN1)[C@H]1CCCc2cccnc21` [EMU-322, ((R)-4-((R)-3-((methyl((S)-5,6,7,8-tetrahydroquinolin-8-yl)amino)methyl)-1,2,3,4-tetrahydroisoquinolin-5-yl)morpholin-2-yl)methanol], the Papp at 4 h in “PAMPA assay” amounted to 13.1 ×10⁻⁶ cm/s. The Papp at 4 h values of the last two compounds are within 1.5-fold of each other.

`C[C@H]1COCCN1c1cccc2c1C[C@H](CN(C)[C@H]1CCCc3cccnc31)NC2` [EMU-339, (S)—N-methyl-N—(((R)-5-((S)-3-methylmorpholino)-1,2,3,4-tetrahydroisoquinolin-3-yl)methyl)-5,6,7,8-tetrahydroquinolin-8-amine] registered a Papp at 4 h in the series “PAMPA assay” of 17.1 ×10⁻⁶ cm/s.

Compound `CN(CCCCN(C[C@H]1Cc2c(cccc2N2CCOCC2)CN1)[C@H]1CCCc2cccnc21)C1CCC(F)(F)CC1` [EMU-273, N1-(4,4-difluorocyclohexyl)-N1-methyl-N4-(((R)-5-morpholino-1,2,3,4-tetrahydroisoquinolin-3-yl)methyl)-N4-((S)-5,6,7,8-tetrahydroquinolin-8-yl)butane-1,4-diamine] showed a Papp at 4 h in the series “PAMPA assay” of 22.6 ×10⁻⁶ cm/s.

In the series “PAMPA assay”, `CN(C[C@H]1Cc2c(cccc2N2CCOCC2)CN1)[C@H]1CCOc2cccnc21` [EMU-319, (4S)—N-methyl-N-((5-morpholino-1,2,3,4-tetrahydroisoquinolin-3-yl)methyl)-3,4-dihydro-2H-pyrano[3,2-b]pyridin-4-amine] gave a Papp at 4 h of 16 ×10⁻⁶ cm/s.

In turn, `CN(C[C@H]1Cc2c(cccc2N2CC3CC2CO3)CN1)[C@H]1CCCc2cccnc21` (stereo in doubt) [EMU-325, (S)—N—(((R)-5-((1R,4R)-2-oxa-5-azabicyclo[2.2.1]heptan-5-yl)-1,2,3,4-tetrahydroisoquinolin-3-yl)methyl)-N-methyl-5,6,7,8-tetrahydroquinolin-8-amine] showed a Papp at 4 h in “PAMPA assay” of 12.3 ×10⁻⁶ cm/s.

In the series “PAMPA assay”, `CCN1CCN(CCCN(C[C@H]2Cc3c(cccc3N3CCOCC3)CN2)[C@H]2CCCc3cccnc32)CC1` [EMU-275, (S)—N-(3-(4-ethylpiperazin-1-yl)propyl)-N—(((R)-5-morpholino-1,2,3,4-tetrahydroisoquinolin-3-yl)methyl)-5,6,7,8-tetrahydroquinolin-8-amine] returned a Papp at 4 h of 10 ×10⁻⁶ cm/s.

`CN(C[C@H]1Cc2c(cccc2N2CCN(C(N)=O)CC2)CN1)[C@H]1CCCc2cccnc21` [EMU-326, 4-((R)-3-((methyl((S)-5,6,7,8-tetrahydroquinolin-8-yl)amino)methyl)-1,2,3,4-tetrahydroisoquinolin-5-yl)piperazine-1-carboxamide]: the “Liver Microsomes % rem. @ 10 min. H” value in series [1] came to 87.1%. Moreover, the IC50 (commonly the midpoint of a concentration-inhibition curve) on CXCR4 was found to be 492 nM. Besides, the Papp at 4 h in the series “PAMPA assay” worked out at 7.6 ×10⁻⁶ cm/s. In “in vitro”, the “Liver Microsomes % rem. @ 10 min. M” value is reported as 78.3%.

For `c1cnc2c(c1)CCC[C@@H]2N(CCCN1CCNCC1)C[C@H]1Cc2c(cccc2N2CCOCC2)CN1` [EMU-184, (S)—N—(((R)-5-morpholino-1,2,3,4-tetrahydroisoquinolin-3-yl)methyl)-N-(3-(piperazin-1-yl)propyl)-5,6,7,8-tetrahydroquinolin-8-amine], the Papp at 4 h in “PAMPA assay” stood at 3 ×10⁻⁶ cm/s.

In “PAMPA assay”, `CN(C[C@H]1Cc2c(cccc2N2C[C@H]3CC[C@@H](C2)O3)CN1)[C@H]1CCCc2cccnc21` [EMU-295, (S)—N—(((R)-5-((1R,5S)-8-oxa-3-azabicyclo[3.2.1]octan-3-yl)-1,2,3,4-tetrahydroisoquinolin-3-yl)methyl)-N-methyl-5,6,7,8-tetrahydroquinolin-8-amine] had a Papp at 4 h of 16.5 ×10⁻⁶ cm/s. This Papp at 4 h lies about 5.5-fold higher than the previous one.

For `Cc1cnc(CN(C)C[C@H]2Cc3c(cccc3N3CCOCC3)CN2)c(C)c1` [EMU-260, (R)-1-(3,5-dimethylpyridin-2-yl)-N-methyl-N-((5-morpholino-1,2,3,4-tetrahydroisoquinolin-3-yl)methyl)methanamine], the apparent permeability coefficient (Papp) at 4 h in the series “PAMPA assay” was found to be 19.2 ×10⁻⁶ cm/s. The Papp at 4 h values of the last two compounds are within 1.5-fold of each other.

Consider `C[C@@H]1COCCN1c1cccc2c1C[C@H](CN(C)[C@H]1CCCc3cccnc31)NC2` [EMU-338, (S)—N-methyl-N—(((R)-5-((R)-3-methylmorpholino)-1,2,3,4-tetrahydroisoquinolin-3-yl)methyl)-5,6,7,8-tetrahydroquinolin-8-amine], for which, in “PAMPA assay”, the Papp at 4 h was found to be 15.7 ×10⁻⁶ cm/s.

For the compound `C[C@H]1CN(c2cccc3c2C[C@H](CN(C)[C@H]2CCCc4cccnc42)NC3)CCO1` [EMU-318, (S)—N-methyl-N—(((R)-5-((S)-2-methylmorpholino)-1,2,3,4-tetrahydroisoquinolin-3-yl)methyl)-5,6,7,8-tetrahydroquinolin-8-amine], the Papp at 4 h in the series “PAMPA assay” worked out at 16.6 ×10⁻⁶ cm/s. The Papp at 4 h values of the last two compounds are within 1.5-fold of each other.

For the compound `CN(C)C(=O)N1CCN(c2cccc3c2C[C@H](CN(C)[C@H]2CCCc4cccnc42)NC3)CC1` [EMU-327, N,N-dimethyl-4-((R)-3-((methyl((S)-5,6,7,8-tetrahydroquinolin-8-yl)amino)methyl)-1,2,3,4-tetrahydroisoquinolin-5-yl)piperazine-1-carboxamide], the “Liver Microsomes % rem. @ 10 min. H” value in series [1] came out at 11.00%. For the same compound, the IC50 on CXCR4 was 684 nM. Further, in the series “PAMPA assay”, the Papp at 4 h was 12.2 ×10⁻⁶ cm/s. Further, in “in vitro”, the “Liver Microsomes % rem. @ 10 min. M” value turned out to be 38.10%.
